The term DC50 denotes the concentration at which degradation of the target reaches its halfway point. The Dmax is the greatest extent of degradation seen.

What all share (format): cell-based
The target of one assay is T1, BRAF G466V (Homo sapiens, UniProt P15056, G466V).
T1 construct: Horizon Discovery (HCT-116 BRAF−/− cells); host or cells: HCT-116 BRAF−/− cells, clone 8, lentiviral transduction
The experiment in a line: BRAF HiBiT degradation assay, C-terminal HiBiT-tagged BRAF G466V overexpressed in HCT-116 BRAF−/− cells (clone 8), Nano-Glo HiBiT Lytic assay. The note with it: BRAF G466V (Class 3), HCT-116 BRAF−/− cells; for DC50: DC50 at 50% degradation; for Dmax: observed Dmax relative to DMSO control. The method, boiled down: (§1)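 First, the stable HiBiT-tagged cells were plated and incubated for 24 h. Next, compound was added in duplicate as an 11-point series with a 1 μM top concentration. Lytic detection followed, with DMSO-treated parental cells used for background. Finally, DC50 and Obs. Dmax relative to DMSO were derived from the % protein remaining curves.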
In general terms: HiBiT is a short tag that completes a luciferase, so light tracks the accessible tagged protein.

The target in another assay is T2, BRAF V600E (Homo sapiens, UniProt P15056, V600E).
T2 construct: endogenous C-terminal HiBiT fusion tag on BRAF V600E allele; endogenous in cells; host or cells: A375 clone 1F10 (CRISPR-Cas9 knock-in of the HiBiT tag; parental A375 from ATCC)
T2 sequence (P15056 whole entry V600E, the tested form may be a part): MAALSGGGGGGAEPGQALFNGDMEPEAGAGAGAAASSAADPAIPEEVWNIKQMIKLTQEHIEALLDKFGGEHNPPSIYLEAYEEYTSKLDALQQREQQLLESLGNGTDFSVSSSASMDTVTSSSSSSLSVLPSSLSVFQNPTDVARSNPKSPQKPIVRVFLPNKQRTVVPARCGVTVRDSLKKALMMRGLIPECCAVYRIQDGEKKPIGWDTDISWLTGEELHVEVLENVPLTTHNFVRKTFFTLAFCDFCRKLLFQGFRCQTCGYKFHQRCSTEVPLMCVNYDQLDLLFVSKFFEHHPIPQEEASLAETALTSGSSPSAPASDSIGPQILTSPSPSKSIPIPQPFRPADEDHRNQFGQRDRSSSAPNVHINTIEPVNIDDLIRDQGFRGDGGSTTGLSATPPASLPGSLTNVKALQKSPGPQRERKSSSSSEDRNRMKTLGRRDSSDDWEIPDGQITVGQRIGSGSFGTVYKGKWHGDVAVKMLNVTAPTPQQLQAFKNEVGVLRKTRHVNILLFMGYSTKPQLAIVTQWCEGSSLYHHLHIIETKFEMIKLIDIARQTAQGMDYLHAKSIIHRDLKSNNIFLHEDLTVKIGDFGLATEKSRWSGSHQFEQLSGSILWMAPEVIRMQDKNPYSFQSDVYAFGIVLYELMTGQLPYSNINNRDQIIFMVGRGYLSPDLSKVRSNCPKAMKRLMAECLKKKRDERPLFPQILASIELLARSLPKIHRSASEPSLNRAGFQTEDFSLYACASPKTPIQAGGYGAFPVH
The assay can be described thus: BRAF HiBiT degradation assay, C-terminal HiBiT-tagged BRAF V600E A375 cells (clone 1F10), Nano-Glo HiBiT Lytic assay. To be noted: A375 (BRAF V600E, Class 1); for DC50: DC50 at 50% degradation; for Dmax: A-375, observed Dmax, % protein degraded relative to DMSO control. The method, boiled down: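 Degradation is measured as loss of HiBiT signal from BRAF V600E tagged at its native locus in A375 cells. Doses span 1 μM to 0.01 nM in half-log steps, in duplicate. Percent remaining is calculated against DMSO controls after subtracting untagged A375 background, and curve fitting yields DC50 and observed Dmax.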

A further assay addresses T3, BRAF G469A (Homo sapiens, UniProt P15056, G469A).
T3 construct: Horizon Discovery (HCT-116 BRAF−/− cells); host or cells: HCT-116 BRAF−/− cells, clone 34, lentiviral transduction
The assay can be described thus: BRAF HiBiT degradation assay, C-terminal HiBiT-tagged BRAF G469A overexpressed in HCT-116 BRAF−/− cells (clone 34), Nano-Glo HiBiT Lytic assay. The note with it: BRAF G469A (Class 2), HCT-116 BRAF−/− cells; for DC50: DC50 at 50% degradation; for Dmax: observed Dmax relative to DMSO control. The method, boiled down:
as §1

Another assay concerns the target T4, BRAF D594G (Homo sapiens, UniProt P15056, D594G).
T4 construct: Horizon Discovery (HCT-116 BRAF−/− cells); host or cells: HCT-116 BRAF−/− cells, clone 63, lentiviral transduction
The experiment in a line: BRAF HiBiT degradation assay, C-terminal HiBiT-tagged BRAF D594G overexpressed in HCT-116 BRAF−/− cells (clone 63), Nano-Glo HiBiT Lytic assay. The note with it: BRAF D594G (Class 3), HCT-116 BRAF−/− cells; for DC50: DC50 at 50% degradation; for Dmax: observed Dmax relative to DMSO control. The gist of the method:
as §1

T4 sequence (P15056 whole entry D594G): as the sequence (P15056 whole entry V600E, the tested form may be a part) above, with D594G, E600V counted along it
T3 sequence (P15056 whole entry G469A): as the sequence (P15056 whole entry V600E, the tested form may be a part) above, with G469A, E600V counted along it
T1 sequence (P15056 whole entry G466V): as the sequence (P15056 whole entry V600E, the tested form may be a part) above, with G466V, E600V counted along it

In the case of `CCCS(=O)(=O)Nc1cc(Cl)cc(-c2cn(-c3ccc(N4CCN(CC5CCN(c6ccc(C7CCC(=O)NC7=O)cn6)CC5)[C@@H](C)C4)cc3)nc2-c2ccncc2)c1F` (mixture of isomers) [Compound 279, N-[5-chloro-3-(1-{4-[(3S)-4-[(1-{5-[(3RS)-2,6-dioxopiperidin-3-yl]pyridin-2-yl}piperidin-4-yl)methyl]-3-methylpiperazin-1-yl]phenyl}-3-(pyridin-4-yl)-1H-pyrazol-4-yl)-2-fluorophenyl]propane-1-sulfonamide], the DC50 on BRAF G466V is less than 10 nM; at BRAF V600E, less than 10 nM; on BRAF G469A, 10 to 50 nM; at BRAF D594G, less than 10 nM. For the same compound, the Dmax at BRAF G466V was greater than 70%; at BRAF V600E it was greater than 70%; on BRAF G469A, 30 to 70%; on BRAF D594G it was 30 to 70%.
On to `O=C1CCC(c2ccc(N3CCC(CN4CCN(c5cc(F)c(-n6cc(-c7cc(Cl)cc(NS(=O)(=O)N8CCCC8)c7F)c(-c7ccncc7)n6)cc5F)CC4)CC3)nc2)C(=O)N1` (racemic) [Compound 354, Rac-N-{5-chloro-3-[1-(4-{4-[(1-{5-[(3R)-2,6-dioxopiperidin-3-yl]pyridin-2-yl}piperidin-4-yl)methyl]piperazin-1-yl}-2,5-difluorophenyl)-3-(pyridin-4-yl)-1H-pyrazol-4-yl]-2-fluorophenyl}pyrrolidine-1-sulfonamide], for which the DC50 was less than 10 nM at BRAF G466V, less than 10 nM on BRAF V600E, 10 to 50 nM on BRAF G469A and less than 10 nM on BRAF D594G. In addition, the Dmax on BRAF G466V is greater than 70%; at BRAF V600E, greater than 70%; at BRAF G469A, 30 to 70%; on BRAF D594G it was 30 to 70%.
For the compound `CCCS(=O)(=O)Nc1cccc(-c2nc(C3CCN(C(=O)CC4CCN(C5CCN(c6ccc7c(c6)C(=O)N(C6CCC(=O)NC6=O)C7=O)CC5)CC4)CC3)sc2-c2ccnc(N)n2)c1F` (racemic) [Compound 250, Rac-N-{3-[5-(2-aminopyrimidin-4-yl)-2-{1-[2-(1′-{2-[(3R)-2,6-dioxopiperidin-3-yl]-1,3-dioxo-2,3-dihydro-1H-isoindol-5-yl}-[1,4′-bipiperidin]-4-yl)acetyl]piperidin-4-yl}-1,3-thiazol-4-yl]-2-fluorophenyl}propane-1-sulfonamide], the DC50 on BRAF G466V is greater than 500 nM; on BRAF V600E, 50 to 500 nM; at BRAF G469A it was greater than 500 nM; on BRAF D594G, greater than 500 nM. In addition, the Dmax was 30 to 70% on BRAF G466V, greater than 70% on BRAF V600E, less than 30% at BRAF G469A and 30 to 70% at BRAF D594G.
As for `O=C1CCN(c2ccc(N3CCC(CN4CCN(c5ccc(-n6cc(-c7cc(Cl)cc(NS(=O)(=O)N8CC[C@@H](F)C8)c7F)c(-c7ccncc7)n6)cc5F)CC4)CC3)cc2)C(=O)N1` [Compound 365, (3R)—N-[5-chloro-3-(1-{4-[4-({1-[4-(2,4-dioxo-1,3-diazinan-1-yl)phenyl]piperidin-4-yl}methyl)piperazin-1-yl]-3-fluorophenyl}-3-(pyridin-4-yl)-1H-pyrazol-4-yl)-2-fluorophenyl]-3-fluoropyrrolidine-1-sulfonamide], the DC50 is less than 10 nM on BRAF G466V, less than 10 nM on BRAF V600E, greater than 500 nM on BRAF G469A and less than 10 nM on BRAF D594G. In addition, the Dmax was 30 to 70% at BRAF G466V, greater than 70% on BRAF V600E, 30 to 70% at BRAF G469A and 30 to 70% on BRAF D594G.
Take `CCN(C)S(=O)(=O)Nc1cccc(-c2cn(-c3ccc(N4CCN(CC5CCN(c6ccc([C@@H]7CCC(=O)NC7=O)cn6)CC5)CC4)c(F)c3)nc2-c2ccncc2)c1F` [Compound 380, (3S)-3-(6-{4-[(4-{4-[4-(3-{[ethyl(methyl)sulfamoyl]amino}-2-fluorophenyl)-3-(pyridin-4-yl)-1H-pyrazol-1-yl]-2-fluorophenyl}piperazin-1-yl)methyl]piperidin-1-yl}pyridin-3-yl)piperidine-2,6-dione]: the DC50 on BRAF G466V was 50 to 500 nM; at BRAF V600E, 50 to 500 nM; on BRAF G469A, greater than 500 nM; on BRAF D594G, 10 to 50 nM. In addition, the Dmax was 30 to 70% on BRAF G466V, greater than 70% at BRAF V600E, 30 to 70% on BRAF G469A and 30 to 70% at BRAF D594G.

The record behind these values is patent US20260317324A1, “BIFUNCTIONAL COMPOUNDS FOR DEGRADING BRAF VIA UBIQUITIN PROTEOSOME PATHWAY” (Nurix Therapeutics, Inc., priority 2023, published 2026).
